These results are taken from ChEMBL document CHEMBL1157917, “Structure-based rational design, synthesis and antifungal activity of oxime-containing azole derivatives” (2010).

Holding throughout (assay type): functional
For one assay, the system named is Cryptococcus neoformans. Nature of the assay: Antifungal activity against Cryptococcus neoformans after 72 hrs by serial dilution method.
The subject of the next assay is Trichophyton rubrum. Nature of the assay: Antifungal activity against Trichophyton rubrum after 7 days by serial dilution method. The conditions noted are these: 168 h.
A further assay deals with Candida parapsilosis. Nature of the assay: Antifungal activity against Candida parapsilosis after 24 hrs by serial dilution method. The following applies: Lodderomyces parapsilosis.
The next assay concerns Aspergillus fumigatus. Briefly: Antifungal activity against Aspergillus fumigatus after 7 days by serial dilution method. The conditions noted are these: 168 h.
The next assay deals with Candida albicans. Nature of the assay: Antifungal activity against Candida albicans after 24 hrs by serial dilution method.
In another assay the test system is Candida tropicalis. Nature of the assay: Antifungal activity against Candida tropicalis after 24 hrs by serial dilution method.
A further assay concerns Pichia kudriavzevii. Briefly: Antifungal activity against Candida krusei after 24 hrs by serial dilution method.

Molecules are shown by their SMILES. Values after ≈ are worked out from the molar mass of the structure shown.

For `OC(CN1CCC(=NOCc2ccccc2F)CC1)(Cn1cncn1)c1ccc(F)cc1F` (racemic), the MIC80 against Cryptococcus neoformans worked out at 0.004 µg/mL (≈ 0.00871 µM); in the assay with Trichophyton rubrum, 0.0625 µg/mL (≈ 0.136 µM); in the assay on Candida parapsilosis, 0.0625 µg/mL (≈ 0.136 µM); in the assay with Aspergillus fumigatus it was 1 µg/mL (≈ 2.18 µM); in the assay with Candida albicans, 0.016 µg/mL (≈ 0.0348 µM); against Candida tropicalis, 0.001 µg/mL (≈ 0.00218 µM). This compound also came in with an MIC80 against Pichia kudriavzevii of 0.25 µg/mL (≈ 0.544 µM).

For `OC(CN1CCC(=NOCc2ccc(Cl)c(Cl)c2)CC1)(Cn1cncn1)c1ccc(F)cc1F` (racemic), the MIC80 with Cryptococcus neoformans was found to be 0.0625 µg/mL (≈ 0.122 µM); against Trichophyton rubrum, 0.0625 µg/mL (≈ 0.122 µM); in the assay with Candida parapsilosis it was 0.25 µg/mL (≈ 0.49 µM); against Aspergillus fumigatus, 1 µg/mL (≈ 1.96 µM); against Candida albicans, 0.25 µg/mL (≈ 0.49 µM); in the assay on Candida tropicalis, 0.25 µg/mL (≈ 0.49 µM). Moreover, in the assay on Pichia kudriavzevii, the MIC80 came to 0.25 µg/mL (≈ 0.49 µM).

Consider `OC(CN1CCC(=NOCc2ccccc2Br)CC1)(Cn1cncn1)c1ccc(F)cc1F` (racemic), for which the MIC80 against Cryptococcus neoformans was 0.004 µg/mL (≈ 0.00769 µM); against Trichophyton rubrum, 0.0625 µg/mL (≈ 0.12 µM); against Candida parapsilosis, 0.0625 µg/mL (≈ 0.12 µM); in the assay with Aspergillus fumigatus it was 1 µg/mL (≈ 1.92 µM); in the assay on Candida albicans, 0.016 µg/mL (≈ 0.0307 µM); against Candida tropicalis it was 0.004 µg/mL (≈ 0.00769 µM). For the same compound, in the assay on Pichia kudriavzevii, the MIC80 is 0.25 µg/mL (≈ 0.48 µM).

For `O=[N+]([O-])c1ccc(CON=C2CCN(CC(O)(Cn3cncn3)c3ccc(F)cc3F)CC2)cc1` (racemic), the MIC80 was determined as 0.016 µg/mL (≈ 0.0329 µM) with Cryptococcus neoformans; 0.0625 µg/mL (≈ 0.128 µM) against Trichophyton rubrum; 0.004 µg/mL (≈ 0.00822 µM) against Candida parapsilosis; 1 µg/mL (≈ 2.06 µM) with Aspergillus fumigatus; 0.016 µg/mL (≈ 0.0329 µM) against Candida albicans; 0.004 µg/mL (≈ 0.00822 µM) against Candida tropicalis. The MIC80 in the assay with Pichia kudriavzevii was 0.25 µg/mL (≈ 0.514 µM).

Turning to `OC(CN1CCC(=NOCc2ccc(F)cc2)CC1)(Cn1cncn1)c1ccc(F)cc1F` (racemic), the MIC80 against Cryptococcus neoformans was determined as 0.016 µg/mL (≈ 0.0348 µM); against Trichophyton rubrum it was 0.0625 µg/mL (≈ 0.136 µM); with Candida parapsilosis, 0.004 µg/mL (≈ 0.00871 µM); with Aspergillus fumigatus, 1 µg/mL (≈ 2.18 µM); in the assay on Candida albicans, 0.016 µg/mL (≈ 0.0348 µM); with Candida tropicalis, 0.0097 µg/mL (≈ 0.0211 µM). The compound also returned an MIC80 against Pichia kudriavzevii of 0.25 µg/mL (≈ 0.544 µM).

With `C[C@@H](c1ncncc1F)[C@](O)(Cn1cncn1)c1ccc(F)cc1F` [VORICONAZOLE], the MIC80 against Cryptococcus neoformans is 0.004 µg/mL (≈ 0.0115 µM); in the assay with Trichophyton rubrum it was 0.004 µg/mL (≈ 0.0115 µM); in the assay on Candida parapsilosis it was 0.004 µg/mL (≈ 0.0115 µM); in the assay with Aspergillus fumigatus, 0.0625 µg/mL (≈ 0.179 µM); in the assay with Candida albicans, 0.004 µg/mL (≈ 0.0115 µM); in the assay on Candida tropicalis it was 0.004 µg/mL (≈ 0.0115 µM). The same compound gave an MIC80 with Pichia kudriavzevii of 0.016 µg/mL (≈ 0.0458 µM).

As for `OC(CN1CCC(=NOCc2ccc(Cl)cc2)CC1)(Cn1cncn1)c1ccc(F)cc1F` (racemic), the MIC80 was 0.001 µg/mL (≈ 0.0021 µM) against Cryptococcus neoformans; 0.0625 µg/mL (≈ 0.131 µM) against Trichophyton rubrum; 0.016 µg/mL (≈ 0.0336 µM) against Candida parapsilosis; 1 µg/mL (≈ 2.1 µM) against Aspergillus fumigatus; 0.0625 µg/mL (≈ 0.131 µM) against Candida albicans; 0.0625 µg/mL (≈ 0.131 µM) in the assay with Candida tropicalis. Besides, the MIC80 in the assay on Pichia kudriavzevii was 0.25 µg/mL (≈ 0.525 µM).

As for `OC(CN1CCC(=NOCc2cccc(C(F)(F)F)c2)CC1)(Cn1cncn1)c1ccc(F)cc1F` (racemic), the MIC80 is 16 µg/mL (≈ 31.4 µM) in the assay with Cryptococcus neoformans; 16 µg/mL (≈ 31.4 µM) in the assay with Trichophyton rubrum; 64 µg/mL (≈ 126 µM) against Candida parapsilosis; 64 µg/mL (≈ 126 µM) in the assay on Aspergillus fumigatus; 16 µg/mL (≈ 31.4 µM) in the assay on Candida albicans; 64 µg/mL (≈ 126 µM) with Candida tropicalis. Moreover, in the assay on Pichia kudriavzevii, the MIC80 turned out to be 64 µg/mL (≈ 126 µM).

On to `Cc1ccccc1CON=C1CCN(CC(O)(Cn2cncn2)c2ccc(F)cc2F)CC1` (racemic), for which the MIC80 is 64 µg/mL (≈ 141 µM) with Cryptococcus neoformans; 16 µg/mL (≈ 35.1 µM) in the assay on Trichophyton rubrum; 64 µg/mL (≈ 141 µM) against Candida parapsilosis; 64 µg/mL (≈ 141 µM) in the assay with Aspergillus fumigatus; 16 µg/mL (≈ 35.1 µM) with Candida albicans; 64 µg/mL (≈ 141 µM) against Candida tropicalis. This compound also yielded an MIC80 against Pichia kudriavzevii of 64 µg/mL (≈ 141 µM).

For `OC(CN1CCC(=NOCc2cccc3ccccc23)CC1)(Cn1cncn1)c1ccc(F)cc1F` (racemic), the MIC80 against Cryptococcus neoformans came to 0.0625 µg/mL (≈ 0.127 µM); against Trichophyton rubrum, 0.25 µg/mL (≈ 0.509 µM); in the assay with Candida parapsilosis, 0.0625 µg/mL (≈ 0.127 µM); in the assay on Aspergillus fumigatus, 1 µg/mL (≈ 2.03 µM); in the assay with Candida albicans, 0.0625 µg/mL (≈ 0.127 µM); against Candida tropicalis, 0.25 µg/mL (≈ 0.509 µM). In the assay with Pichia kudriavzevii, this compound registered an MIC80 of 4 µg/mL (≈ 8.14 µM).

Consider `OC(CN1CCC(=NOCc2ccc3ccccc3c2)CC1)(Cn1cncn1)c1ccc(F)cc1F` (racemic), for which the MIC80 against Cryptococcus neoformans came to 0.016 µg/mL (≈ 0.0326 µM); in the assay with Trichophyton rubrum, 0.0625 µg/mL (≈ 0.127 µM); against Candida parapsilosis, 0.016 µg/mL (≈ 0.0326 µM); against Aspergillus fumigatus, 1 µg/mL (≈ 2.03 µM); against Candida albicans, 0.016 µg/mL (≈ 0.0326 µM); against Candida tropicalis it was 0.016 µg/mL (≈ 0.0326 µM). This compound had an MIC80 with Pichia kudriavzevii of 0.25 µg/mL (≈ 0.509 µM).

As usually defined, the MIC80 is an inhibitory concentration at the 80% level, which refers to growth in some studies and to a panel of isolates in others. A low value points to higher susceptibility.
